pKi: −log10 of the molar value. Like-named read-outs stand apart in the source and are kept apart here.
Tests used:
[1] = target: isolated recombinant JAK1 kinase domain (Homo sapiens (Human), UniProt P23458); assay: JAK1 enzyme assay (Caliper LabChip, Ki); assay type: biochemical
Description: (§1) JAK Enzyme Assays were carried out as follows:
(§2) The activity of the isolated recombinant JAK1 and JAK2 kinase domain was measured by monitoring phosphorylation of a peptide derived from JAK3 (Val-Ala-Leu-Val-Asp-Gly-Tyr-Phe-Arg-Leu-Thr-Thr, fluorescently labeled on the N-terminus with 5-carboxyfluorescein) using the Caliper LabChip® technology (Caliper Life Sciences, Hopkinton, Mass.). […] Reactions were incubated at 22° C. in 384-well polypropylene microtiter plates for 30 minutes and then stopped by addition of 25 μL of an EDTA containing solution (100 mM HEPES buffer (pH 7.2), 0.015% Brij-35, 150 mM EDTA), resulting in a final EDTA concentration of 50 mM. After termination of the kinase reaction, the proportion of phosphorylated product was determined as a fraction of total peptide substrate using the Caliper LabChip® 3000 according to the manufacturer's specifications. Ki values were then determined using the Morrison tight binding model (Morrison, J. F., Biochim. Biophys. Acta. 185:269-296 (1969); William, J. W. and Morrison, J. F., Meth. Enzymol., 63:437-467 (1979)) modified for ATP-competitive inhibition [Ki=Ki,app/(1+[ATP]/Km,app)].

[2] = target: isolated recombinant JAK2 kinase domain (Homo sapiens (Human), UniProt O60674); assay: JAK2 enzyme assay (Caliper LabChip, Ki); assay type: biochemical
Description: as §1
as §2, with “([…]” for “(Val-Ala-Leu-Val-Asp-Gly-Tyr-Phe-Arg-Leu-Thr-Thr,”, “specifications.” for “specifications. Ki values were then determined using the Morrison tight binding model (Morrison, J. F., Biochim. Biophys. Acta. 185:269-296 (1969); William, J. W. and Morrison, J. F., Meth. Enzymol., 63:437-467 (1979)) modified for ATP-competitive inhibition [Ki=Ki,app/(1+[ATP]/Km,app)].”

Sequence of isolated recombinant JAK2 kinase domain (O60674 849-1124): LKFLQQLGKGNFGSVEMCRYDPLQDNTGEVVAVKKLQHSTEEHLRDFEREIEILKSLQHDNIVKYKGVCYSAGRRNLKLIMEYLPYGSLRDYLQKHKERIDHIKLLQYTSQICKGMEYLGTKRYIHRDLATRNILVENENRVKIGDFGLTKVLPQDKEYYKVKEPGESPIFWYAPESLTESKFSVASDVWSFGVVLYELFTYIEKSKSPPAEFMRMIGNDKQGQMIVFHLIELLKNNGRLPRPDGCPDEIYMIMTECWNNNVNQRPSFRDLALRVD
Sequence of isolated recombinant JAK1 kinase domain (P23458 875-1153): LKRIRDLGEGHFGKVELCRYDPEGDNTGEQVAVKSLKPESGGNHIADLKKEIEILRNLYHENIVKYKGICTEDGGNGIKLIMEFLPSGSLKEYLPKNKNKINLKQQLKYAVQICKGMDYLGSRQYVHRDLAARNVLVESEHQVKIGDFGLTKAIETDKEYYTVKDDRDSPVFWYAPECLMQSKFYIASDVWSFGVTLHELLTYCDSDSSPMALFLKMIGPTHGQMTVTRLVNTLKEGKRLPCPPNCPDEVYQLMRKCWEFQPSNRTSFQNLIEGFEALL

## N#CCC1(n2cc(C(N)=O)c(NC(=O)C3CC3)n2)CCC2(CC1)Oc1ccccc1O2 (racemic) [Example 34]
[1]
  pKi: 7.61
[2]
  pKi: 6.56

## N#CCC1(n2cc(C(N)=O)c(NC(=O)C3CC3)n2)CCN(Cc2cccc(-c3ccccc3)c2)CC1 (racemic) [Example 37]
[1]
  pKi: 7.46
[2]
  pKi: 6.57

## N#CCC1(n2cc(C(N)=O)c(NC(=O)C3CC3)n2)CCN(Cc2ccc(N3CCCCC3)cc2)CC1 (racemic) [Example 39]
[1]
  pKi: 7.01
[2]
  pKi: < 6.50

## N#CC[C@]1(n2cc(C(N)=O)c(NC(=O)C3CC3)n2)CC[C@@H](N2CC(C(F)(F)F)C2)CC1 (single isomer, unassigned) [Example 7]
[1]; read-out: JAK1 Ki
  pKi: < 6.25
[2]
  pKi: < 6.50

## N#CCC1(n2cc(C(N)=O)c(NC(=O)[C@H]3C[C@H]3C3CC3)n2)CCN(CC(F)(F)F)CC1 (stereo in doubt) [Example 176, 1-[4-(cyanomethyl)-1-(2,2,2-trifluoroethyl)-4-piperidyl]-3-[(2-cyclopropylcyclopropanecarbonyl)amino]pyrazole-4-carboxamide]
[1]; read-out: JAK1 Ki
  pKi: 6.52
[2]
  pKi: < 6.50

## N#CCC1(n2cc(C(N)=O)c(NC(=O)[C@H]3C[C@@H]3C3CC3)n2)CCN(CC(F)(F)F)CC1 (stereo in doubt) [Example 177, 1-[4-(cyanomethyl)-1-(2,2,2-trifluoroethyl)-4-piperidyl]-3-[(2-cyclopropylcyclopropanecarbonyl)amino]pyrazole-4-carboxamide]
[1]; read-out: JAK1 Ki
  pKi: 7.73
[2]
  pKi: 6.65

## CNC(=O)Nc1cn(C2(CC#N)CCN(CC(F)(F)F)CC2)nc1C(N)=O [Example 3, 1-(4-(Cyanomethyl)-1-(2,2,2-trifluoroethyl)piperidin-4-yl)-4-(3-methylureido)-1H-pyrazole-3-carboxamide]
[1]; read-out: JAK1 Ki
  pKi: 8.19
[2]
  pKi: 7.80

## COC(=O)Nc1nn(C2(CC#N)CCN(CC(F)(F)F)CC2)cc1C(N)=O [Example 4, Methyl (4-carbamoyl-1-(4-(cyanomethyl)-1-(2,2,2-trifluoroethyl)piperidin-4-yl)-1H-pyrazol-3-yl)carbamate]
[1]; read-out: JAK1 Ki
  pKi: 8.09
[2]
  pKi: 7.46

## N#CCC1(n2cc(C(N)=O)c(NC(=O)C3CC3)n2)CCC2(CC1)COC2 [Example 5, 1-(7-(Cyanomethyl)-2-oxaspiro[3.5]nonan-7-yl)-3-(cyclopropanecarboxamido)-1H-pyrazole-4-carboxamide]
[1]; read-out: JAK1 Ki
  pKi: 7.64
[2]
  pKi: 6.72

## N#CCC1(n2cc(C(N)=O)c(NC(=O)C3CC3)n2)CCN(C(=O)Cc2ccccc2)CC1 [Example 18, 1-(4-(Cyanomethyl)-1-(2-phenylacetyl)piperidin-4-yl)-3-(cyclopropanecarboxamido)-1H-pyrazole-4-carboxamide]
[1]; read-out: JAK1 Ki
  pKi: 7.51
[2]
  pKi: 6.63

## N#CCC1(n2cc(C(N)=O)c(NC(=O)C3CC3)n2)CCN(C(CO)c2ccccc2)CC1 (stereo not shown) [Example 19, 1-(4-(Cyanomethyl)-1-(2-hydroxy-1-phenylethyl)piperidin-4-yl)-3-(cyclopropanecarboxamido)-1H-pyrazole-4-carboxamide]
[1]
  pKi: 7.16
[2]
  pKi: < 6.50

## N#CCC1(n2cc(C(N)=O)c(NC(=O)C3CC3)n2)CCN(CC(O)c2ccccc2)CC1 (stereo not shown) [Example 20, 1-(4-(cyanomethyl)-1-(2-hydroxy-2-phenylethyl)piperidin-4-yl)-3-(cyclopropanecarboxamido)-1H-pyrazole-4-carboxamide]
[1]
  pKi: 6.35
[2]
  pKi: < 6.50

## CC(c1ccccc1)N1CCC(CC#N)(n2cc(C(N)=O)c(NC(=O)C3CC3)n2)CC1 (stereo not shown) [Example 22]
[1]; read-out: JAK1 Ki
  pKi: 7.43
[2]
  pKi: 6.82

## CC(=O)Nc1nn(C2(CC#N)CCN(CC(F)(F)F)CC2)cc1C(N)=O [Example 24]
[1]; read-out: JAK1 Ki
  pKi: 7.45
[2]
  pKi: 7.12

## N#CCC1(n2cc(C(N)=O)c(NC(=O)C3CC34CC4)n2)CCN(CC(F)(F)F)CC1 (stereo not shown) [Example 25]
[1]; read-out: JAK1 Ki
  pKi: 7.09
[2]
  pKi: < 6.50

## N#CCC1(n2cc(C(N)=O)c(NC(=O)C3CC3(F)F)n2)CCN(CC(F)(F)F)CC1 (stereo not shown) [Example 26]
[1]; read-out: JAK1 Ki
  pKi: 7.94
[2]
  pKi: 6.69

## N#CCC1(n2cc(C(N)=O)c(NC(=O)[C@H]3C[C@@H]3C(F)(F)F)n2)CCN(CC(F)(F)F)CC1 [Example 27]
[1]; read-out: JAK1 Ki
  pKi: 6.99
[2]
  pKi: 6.11

## N#CCC1(n2cc(C(N)=O)c(NC(=O)[C@@H]3C[C@@H]3F)n2)CCN(CC(F)(F)F)CC1 [Example 28]
[1]; read-out: JAK1 Ki
  pKi: 7.92
[2]
  pKi: 7.51

## N#CCC1(n2cc(C(N)=O)c(NC(=O)[C@H]3C[C@H]3F)n2)CCN(CC(F)(F)F)CC1 [Example 29]
[1]; read-out: JAK1 Ki
  pKi: 8.00
[2]
  pKi: 7.92

## N#CCC1(n2cc(C(N)=O)c(NC(=O)[C@@H]3C[C@H]3F)n2)CCN(CC(F)(F)F)CC1 [Example 30]
[1]; read-out: JAK1 Ki
  pKi: 8.07
[2]
  pKi: 7.27

## N#CCC1(n2cc(C(N)=O)c(NC(=O)[C@H]3CC34CCC4)n2)CCN(CC(F)(F)F)CC1 [Example 31]
[1]; read-out: JAK1 Ki
  pKi: 7.02
[2]
  pKi: 6.72

## C[C@@H]1C[C@H]1C(=O)Nc1nn(C2(CC#N)CCN(CC(F)(F)F)CC2)cc1C(N)=O [Example 32]
[1]; read-out: JAK1 Ki
  pKi: 7.14
[2]
  pKi: 6.71

## N#CCC1(n2cc(C(N)=O)c(NC(=O)C3CC3)n2)CCCCC1 [Example 33]
[1]; read-out: JAK1 Ki
  pKi: 7.81
[2]
  pKi: 7.12

## CC(C)(C)OC(=O)N[C@H]1CC[C@](CC#N)(n2cc(C(N)=O)c(NC(=O)C3CC3)n2)CC1 [Example 35]
[1]
  pKi: 7.69
[2]
  pKi: 6.56

## CC(C)(C)OC(=O)N[C@H]1CC[C@@](CC#N)(n2cc(C(N)=O)c(NC(=O)C3CC3)n2)CC1 [Example 36]
[1]
  pKi: < 6.25
[2]
  pKi: < 6.50

## N#CCC1(n2cc(C(N)=O)c(NC(=O)C3CC3)n2)CCN(Cc2ccccc2-c2ccccc2)CC1 [Example 38]
[1]; read-out: JAK1 Ki
  pKi: 8.09
[2]
  pKi: 6.97

## N#CCC1(n2cc(C(N)=O)c(NC(=O)C3CC3)n2)CCN(Cc2ccccc2)CC1 [Example 40]
[1]; read-out: JAK1 Ki
  pKi: 8.10
[2]
  pKi: 7.01

## COc1ccccc1CN1CCC(CC#N)(n2cc(C(N)=O)c(NC(=O)C3CC3)n2)CC1 [Example 41]
[1]; read-out: JAK1 Ki
  pKi: 7.27
[2]
  pKi: < 6.50

## COc1cccc(CN2CCC(CC#N)(n3cc(C(N)=O)c(NC(=O)C4CC4)n3)CC2)c1 [Example 42]
[1]; read-out: JAK1 Ki
  pKi: 8.11
[2]
  pKi: 7.02

## COc1ccc(CN2CCC(CC#N)(n3cc(C(N)=O)c(NC(=O)C4CC4)n3)CC2)cc1 [Example 43]
[1]; read-out: JAK1 Ki
  pKi: 7.59
[2]
  pKi: 6.77

## CS(=O)(=O)Nc1ccccc1CN1CCC(CC#N)(n2cc(C(N)=O)c(NC(=O)C3CC3)n2)CC1 [Example 44]
[1]; read-out: JAK1 Ki
  pKi: 7.56
[2]
  pKi: 6.76

## CS(=O)(=O)Nc1ccc(CN2CCC(CC#N)(n3cc(C(N)=O)c(NC(=O)C4CC4)n3)CC2)cc1 [Example 46]
[1]; read-out: JAK1 Ki
  pKi: 7.38
[2]
  pKi: 6.55

## N#CCC1(n2cc(C(N)=O)c(NC(=O)C3CC3)n2)CCN(Cc2ccccc2OC(F)(F)F)CC1 [Example 47]
[1]; read-out: JAK1 Ki
  pKi: 7.47
[2]
  pKi: 6.60

## N#CCC1(n2cc(C(N)=O)c(NC(=O)C3CC3)n2)CCN(Cc2cccc(OC(F)(F)F)c2)CC1 [Example 48]
[1]; read-out: JAK1 Ki
  pKi: 7.56
[2]
  pKi: 6.72

## N#CCC1(n2cc(C(N)=O)c(NC(=O)C3CC3)n2)CCN(Cc2ccc(OC(F)(F)F)cc2)CC1 [Example 49]
[1]; read-out: JAK1 Ki
  pKi: 7.63
[2]
  pKi: 6.72

## N#CCC1(n2cc(C(N)=O)c(NC(=O)C3CC3)n2)CCN(Cc2ccccc2Br)CC1 [Example 50]
[1]; read-out: JAK1 Ki
  pKi: 8.21
[2]
  pKi: 7.18

## N#CCC1(n2cc(C(N)=O)c(NC(=O)C3CC3)n2)CCN(Cc2cccc(Br)c2)CC1 [Example 51]
[1]; read-out: JAK1 Ki
  pKi: 8.19
[2]
  pKi: 7.27

## N#CCC1(n2cc(C(N)=O)c(NC(=O)C3CC3)n2)CCN(Cc2ccccc2I)CC1 [Example 53]
[1]; read-out: JAK1 Ki
  pKi: 8.15
[2]
  pKi: 7.00
